The source of these data is PubChem BioAssay AID1963437 (Molecular Pharmacology Branch, DTP, NCI, 2024).

The subject of this test is OVCAR-8 complex spheroid, growth inhibition. Description: Anticancer human tumor OVCAR-8 cell line growth inhibition [Asc].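 For all read-outs here: spheroids exposed to agents for 7 days before readout.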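 For viability, T/C: percent viability relative to DMSO vehicle wells taken as 100%.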 As to conditions: for viability, T/C: stronger effect = lower value. The method, boiled down:
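Spheroid model: tumor line + HUVEC + hMSC. Single agents and combinations; top conc. at/near clinical Cmax (10 microM if undetermined), half-log dilutions. DMSO stocks at 800-fold test concentration.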

Each structure is given as a SMILES string. “And” between values parts separate entries of the source, which are not always exact repeats. Equal entries are not always repeated. Some results are limits rather than exact numbers.

With `NC(=O)C(=Cn1cnc(-c2cc(C(F)(F)F)cc(C(F)(F)F)c2)n1)c1cncnc1` + CCN1C(C(=O)NC23CCC(C(=O)O)(CC2)CC3)C(c2cccc(Cl)c2F)C2(C(=O)Nc3cc(Cl)ccc32)C12CCCCC2, the IC50 runs as follows: (curve of first compound, second compound 0.00949 µM) over 300 nM; (curve of first compound, second compound 0.03 µM) over 300 nM; (curve of first compound, second compound 0.0949 µM) over 300 nM; (curve of first compound, second compound 0.3 µM) over 300 nM; (curve of first compound, second compound 0.949 µM) over 300 nM; (curve of first compound, second compound 3 µM) over 300 nM. In addition, the viability, T/C (second compound 0.00949 µM, first compound 0.000949 µM) is 98.7%; the viability, T/C (second compound 0.00949 µM, first compound 0.003 µM) is 100%; the viability, T/C (second compound 0.00949 µM, first compound 0.00949 µM) was 106%; the viability, T/C (second compound 0.00949 µM, first compound 0.03 µM) was 102%; the viability, T/C (second compound 0.00949 µM, first compound 0.0949 µM) is 81.8%; the viability, T/C (second compound 0.00949 µM, first compound 0.3 µM) is 66.3%. For the same compound, the viability, T/C is, setting by setting: (second compound 0.03 µM, first compound 0.000949 µM) 96.5%; (second compound 0.03 µM, first compound 0.003 µM) 90.1%; (second compound 0.03 µM, first compound 0.00949 µM) 111%; (second compound 0.03 µM, first compound 0.03 µM) 89.5%; (second compound 0.03 µM, first compound 0.0949 µM) 82.5%; (second compound 0.03 µM, first compound 0.3 µM) 66.9%. For the same compound, the viability, T/C is, setting by setting: (second compound 0.0949 µM, first compound 0.000949 µM) 88.9%; (second compound 0.0949 µM, first compound 0.003 µM) 102%; (second compound 0.0949 µM, first compound 0.00949 µM) 102%; (second compound 0.0949 µM, first compound 0.03 µM) 105%; (second compound 0.0949 µM, first compound 0.0949 µM) 80.3%; (second compound 0.0949 µM, first compound 0.3 µM) 65.9%. Further, the viability, T/C is, setting by setting: (second compound 0.3 µM, first compound 0.000949 µM) 93.2%; (second compound 0.3 µM, first compound 0.003 µM) 85.1%; (second compound 0.3 µM, first compound 0.00949 µM) 94%; (second compound 0.3 µM, first compound 0.03 µM) 101%; (second compound 0.3 µM, first compound 0.0949 µM) 81%; (second compound 0.3 µM, first compound 0.3 µM) 68.7%. In addition, the viability, T/C (second compound 0.949 µM, first compound 0.000949 µM) is 88.1%; the viability, T/C (second compound 0.949 µM, first compound 0.003 µM) is 103%; the viability, T/C (second compound 0.949 µM, first compound 0.00949 µM) was 102%; the viability, T/C (second compound 0.949 µM, first compound 0.03 µM) is 122%; the viability, T/C (second compound 0.949 µM, first compound 0.0949 µM) is 73.4%; the viability, T/C (second compound 0.949 µM, first compound 0.3 µM) was 60%. Besides, the viability, T/C is, setting by setting: (second compound 3 µM, first compound 0.000949 µM) 116%; (second compound 3 µM, first compound 0.003 µM) 109%; (second compound 3 µM, first compound 0.00949 µM) 112%; (second compound 3 µM, first compound 0.03 µM) 115%; (second compound 3 µM, first compound 0.0949 µM) 80.5%; (second compound 3 µM, first compound 0.3 µM) 59.8%.

On to `COc1c(OCCCN2CCOCC2)ccc2c3n(c(=NC(=O)c4cnc(N)nc4)nc12)CCN3`, for which the viability, T/C (compound 0.00316 µM) is 98.2% and 94.8% and 108%; the viability, T/C (compound 0.01 µM) was 111% and 110% and 109%; the viability, T/C (compound 0.0316 µM) was 120% and 123% and 130%; the viability, T/C (compound 0.1 µM) is 167% and 133% and 157%; the viability, T/C (compound 0.316 µM) is 134% and 141% and 143%; the viability, T/C (compound 1 µM) was 77% and 89.5% and 94.5%. Moreover, the IC50 (curve of compound) was over 1000 nM.

For `Cc1nc(N2CCC3(CC2)COC(C)C3N)c(CO)nc1Sc1ccnc(N)c1Cl` (centres undefined), the viability, T/C (compound 0.00949 µM) is 111% and 101% and 103%; the viability, T/C (compound 0.03 µM) is 121% and 112% and 102%; the viability, T/C (compound 0.0949 µM) is 195% and 147% and 149%; the viability, T/C (compound 0.3 µM) is 239% and 173% and 192%; the viability, T/C (compound 0.949 µM) was 261% and 212% and 243%; the viability, T/C (compound 3 µM) is 261% and 201% and 223%. In addition, for the setting “curve of compound”, the IC50 is over 3000 nM.

As for `NC(=O)C(=Cn1cnc(-c2cc(C(F)(F)F)cc(C(F)(F)F)c2)n1)c1cncnc1` + Cc1c(S(C)(=O)=O)c(-c2cc(F)cc(N3CCN(c4ccc(NS(=O)(=O)c5ccc(NC(CCN6CCC(C(=O)OCCCP(=O)(O)O)CC6)CSc6ccccc6)c(S(=O)(=O)C(F)(F)F)c5)cc4)CC3)c2)c(-c2ccc(Cl)cc2)n1C(C)C, the IC50 runs as follows: (curve of first compound, second compound 0.0316 µM) over 300 nM; (curve of first compound, second compound 0.1 µM) over 300 nM; (curve of first compound, second compound 0.316 µM) 219 nM; (curve of first compound, second compound 1 µM) 155 nM; (curve of first compound, second compound 3.16 µM) 131 nM; (curve of first compound, second compound 10 µM) 108 nM. The viability, T/C by setting is: (second compound 0.0316 µM, first compound 0.000949 µM) 107%; (second compound 0.0316 µM, first compound 0.003 µM) 97.1%; (second compound 0.0316 µM, first compound 0.00949 µM) 103%; (second compound 0.0316 µM, first compound 0.03 µM) 114%; (second compound 0.0316 µM, first compound 0.0949 µM) 89.3%; (second compound 0.0316 µM, first compound 0.3 µM) 55.4%. Also, the viability, T/C is 103% (second compound 0.1 µM, first compound 0.000949 µM); 92.6% (second compound 0.1 µM, first compound 0.003 µM); 93.5% (second compound 0.1 µM, first compound 0.00949 µM); 102% (second compound 0.1 µM, first compound 0.03 µM); 90.4% (second compound 0.1 µM, first compound 0.0949 µM); 57.6% (second compound 0.1 µM, first compound 0.3 µM). The viability, T/C reads like this: (second compound 0.316 µM, first compound 0.000949 µM) 115%; (second compound 0.316 µM, first compound 0.003 µM) 112%; (second compound 0.316 µM, first compound 0.00949 µM) 101%; (second compound 0.316 µM, first compound 0.03 µM) 107%; (second compound 0.316 µM, first compound 0.0949 µM) 90.4%; (second compound 0.316 µM, first compound 0.3 µM) 34.8%. Further, the viability, T/C was 119% (second compound 1 µM, first compound 0.000949 µM); 111% (second compound 1 µM, first compound 0.003 µM); 114% (second compound 1 µM, first compound 0.00949 µM); 116% (second compound 1 µM, first compound 0.03 µM); 73.8% (second compound 1 µM, first compound 0.0949 µM); 18.1% (second compound 1 µM, first compound 0.3 µM). Further, the viability, T/C (second compound 3.16 µM, first compound 0.000949 µM) is 109%; the viability, T/C (second compound 3.16 µM, first compound 0.003 µM) is 104%; the viability, T/C (second compound 3.16 µM, first compound 0.00949 µM) was 121%; the viability, T/C (second compound 3.16 µM, first compound 0.03 µM) was 111%; the viability, T/C (second compound 3.16 µM, first compound 0.0949 µM) was 66.7%; the viability, T/C (second compound 3.16 µM, first compound 0.3 µM) is 6.92%. The viability, T/C is, setting by setting: (second compound 10 µM, first compound 0.000949 µM) 117%; (second compound 10 µM, first compound 0.003 µM) 115%; (second compound 10 µM, first compound 0.00949 µM) 132%; (second compound 10 µM, first compound 0.03 µM) 127%; (second compound 10 µM, first compound 0.0949 µM) 55.8%; (second compound 10 µM, first compound 0.3 µM) 4.41%.

In the case of `CNC(C)C(=O)NC1CN(S(=O)(=O)c2cccc(S(=O)(=O)N3CCC4CCC(C(=O)NC(c5ccccc5)c5ccccc5)N4C(=O)C(NC(=O)C(C)NC)C3)c2)CCC2CCC(C(=O)NC(c3ccccc3)c3ccccc3)N2C1=O` (centres undefined), the IC50 (curve of compound) is over 1000 nM.

For orientation: IC50 means the concentration at which inhibition is half-maximal. One may read the viability, T/C as the result in the treated group divided by that in the control group, in per cent.
